{"source": "patent US11731964B2", "about": "“Benzamide antibacterial agents” (Purdue Research Foundation, priority 2018, dated 2023)", "key": {"S. aureus": {"system": "S. aureus", "assay": "Screening of compounds for growth inhibition of S. aureus at 16 μg/mL (OD600)", "type": "cell-based", "settings": "compound at 16 μg/mL, 24 hours, compared to DMSO control", "experimental": "Library compounds and analogs of F6 were dissolved in DMSO at 10 mg/mL. S. aureus was cultured in Mueller Hinton Broth to early exponential phase at which point culture aliquots were incubated with compounds at 16 μg/mL or DMSO in duplicates. The culture was continued at 37° C. for 24 hours. Aliquots (100 μL) of the cultures were dispensed into clear 96 well microtiter plates and OD600 was recorded. Percent normalized OD600 was obtained by using the equation [formula] wherein for a given compound, X is the OD600 of culture with the compound, Xo is that of media only and XT is the OD600 of the DMSO control."}, "E. faecalis ATCC 29212": {"system": "E. faecalis ATCC 29212", "assay": "MIC, broth microdilution", "type": "cell-based", "settings": "Enterococcus faecalis, ATCC29212; E. faecalis ATCC 29212; read-out: MIC", "how_it_was_run": "(§1)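 Visual read-out: the minimum inhibitory concentration is the lowest concentration lacking bacterial growth following incubation of ≥20 h at 37° C. Media varied by organism (CA-MHB, TSB, or BHI for E. faecium). Bactericidal concentration came from subculturing clear wells onto Tryptic Soy Agar for ≥18 h.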"}, "[1]": {"system": "L. monocytogenes ATCC 19115", "assay": "MIC, broth microdilution", "type": "cell-based", "settings": "Listeria monocytogenes, ATCC19115; L. monocytogenes ATCC 19115; read-out: MIC", "how_it_was_run": "as §1"}, "MRSA ATCC 33592": {"system": "MRSA ATCC 33592", "assay": "MIC, broth microdilution", "type": "cell-based", "settings": "Staphylococcus aureus; MRSA ATCC 33592; read-out: MIC", "how_it_was_run": "as §1"}, "S. aureus ATCC 25923": {"system": "S. aureus ATCC 25923", "assay": "MIC, broth microdilution", "type": "cell-based", "settings": "Staphylococcus aureus, ATCC25923; S. aureus ATCC 25923; read-out: MIC", "how_it_was_run": "as §1"}, "[2]": {"system": "VRE (E. faecalis) ATCC 51575", "assay": "MIC, broth microdilution", "type": "cell-based", "settings": "VRE (E. faecalis) ATCC 51575; read-out: MIC", "how_it_was_run": "as §1"}, "E. faecium ATCC": {"system": "E. faecium ATCC", "assay": "MIC and MBC", "type": "cell-based", "settings": "Enterococcus faecium, E. faecium ATCC", "experimental": "(§2) Bacteria were cultured in cation-adjusted Mueller Hinton Broth (for strains in Tables 1 and 4) or Brain Heart Infusion broth (for Enterococcus faecium) or Tryptic Soy Broth (all other bacteria) in a 96-well plate at 37° C. for at least 20 hours. The MIC was classified as the lowest concentration where no visual growth of bacteria was observed. The minimum bactericidal concentration (MBC) was tested by spotting 4 μL from wells with no growth onto Tryptic Soy Agar (TSA) plates. Plates were incubated at 37° C. for at least 18 hours before recording the MBC."}, "MRSA NRS123 (USA400)": {"system": "MRSA NRS123 (USA400)", "assay": "MIC and MBC", "type": "cell-based", "settings": "Staphylococcus aureus, MRSA NRS123 (USA400)", "experimental": "as §2"}, "MRSA NRS385 (USA500)": {"system": "MRSA NRS385 (USA500)", "assay": "MIC and MBC", "type": "cell-based", "settings": "Staphylococcus aureus, MRSA NRS385 (USA500)", "experimental": "as §2"}, "[3]": {"system": "Acinetobacter baumannii ATCC 19606", "assay": "MIC against Gram-negative pathogens", "type": "cell-based", "experimental": "as §2"}, "Escherichia coli BW25113": {"system": "Escherichia coli BW25113", "assay": "MIC against Gram-negative pathogens", "type": "cell-based", "settings": "Escherichia coli BW25113 (wild-type); read-out: MIC", "experimental": "as §2"}, "[4]": {"system": "Klebsiella pneumoniae BAA-1706", "assay": "MIC against Gram-negative pathogens", "type": "cell-based", "experimental": "as §2"}, "[5]": {"system": "Pseudomonas aeruginosa ATCC 15442", "assay": "MIC against Gram-negative pathogens", "type": "cell-based", "experimental": "as §2"}, "[6]": {"system": "Escherichia coli JW5503-1 (ΔtolC)", "assay": "MIC against Gram-negative pathogens (efflux pump knockout)", "type": "cell-based", "experimental": "as §2"}, "MRSA USA300": {"system": "MRSA USA300", "assay": "Time-kill analysis", "type": "cell-based, Staphylococcus aureus", "experimental": "The time-kill analysis was performed as previously described^29. […] Aliquots (100 μL) were collected from each treatment after 0, 2, 4, 8, 12, and 24 hours of incubation at 37° C. and subsequently serially diluted in phosphate-buffered saline (PBS). Bacteria were then transferred to TSA plates and incubated at 37° C. for 18-20 hours before viable CFU/mL was determined."}, "[7]": {"system": "human colorectal (Caco-2) cells", "assay": "Toxicity profile, MTS viability assay", "type": "cell-based", "settings": "24 hours, tested 2 to 256 μg/mL", "experimental": "(§3) Compound F6 was assayed (at concentrations ranging from 2 μg/mL to 256 μg/mL) against murine macrophage (J774) and human colorectal (Caco-2) epithelial cell lines to determine the potential toxic effect to mammalian cells in vitro. Caco-2 cells were cultured in Dulbecco's Modified Eagle Medium (DMEM) supplemented with 20% fetal bovine serum (FBS), non-essential amino acids (1×), and penicillin-streptomycin at 37° C. with CO2 (5%). J774 cells were cultured in DMEM supplemented with 10% FBS. Upon reaching 85-90% confluency, cells were transferred to all wells of a 96-well tissue-culture treated plate. The cells were incubated in serum-free medium with the compounds (in triplicate) at 37° C. with CO2 (5%) for 24 hours. Cells exposed to equivalent concentrations of DMSO served as the negative control. The assay reagent MTS 3-(4,5-dimethylthiazol-2-yl)-5-(3-carboxymethoxyphenyl)-2-(4-sulfophenyl)-2H-tetrazolium) (Promega, Madison, Wis., USA) was subsequently added and the plate was incubated for four hours. Absorbance readings (at OD490) were taken using a kinetic microplate reader (Molecular Devices, Sunnyvale, Calif., USA). The quantity of viable cells after treatment with each compound was expressed as a percentage of the viability of DMSO-treated control cells (average of triplicate wells±standard deviation). The toxicity data were analyzed via a two-way ANOVA, with post hoc Sidak's multiple comparisons test (P<0.05), utilizing GraphPad Prism 6.0 (GraphPad Software, La Jolla, Calif., USA)."}, "[8]": {"system": "murine macrophage (J774) cells", "assay": "Toxicity profile, MTS viability assay", "type": "cell-based", "experimental": "as §3"}, "MRSA USA400 (NRS123)": {"system": "MRSA USA400 (NRS123)", "type": "cell-based, Staphylococcus aureus", "source_text": "Resistance was classified as a greater than four-fold increase in the initial MIC, as reported elsewhere^30 (Farrell D J, Robbins M, Rhys-Williams W, Love W G. Investigation of the potential for mutational resistance to XF-73, retapamulin, mupirocin, fusidic acid, daptomycin, and vancomycin in methicillin-resistant Staphylococcus aureus isolates during a 55-passage study. Antimicrob Agents Chemother. 2011; 55(3):1177-81)."}}, "note": "Where two headings read alike, the source gives them in different places.", "data": [{"smiles": "CC1CC(C)CN(S(=O)(=O)c2ccc(C(=O)Nc3nnc(-c4cccs4)o3)cc2)C1", "note": "(stereo not shown) [Compound F6]", "values": [{"measurement": "inhibition of growth of S. aureus", "setting": "S. aureus", "value": "significantly inhibited the growth"}, {"measurement": "MIC", "setting": "E. faecalis ATCC 29212", "value": 4, "unit": "µg/mL"}, {"measurement": "MIC", "setting": "[1]", "value": 4, "unit": "µg/mL"}, {"measurement": "MIC", "setting": "MRSA ATCC 33592", "value": 2, "unit": "µg/mL"}, {"measurement": "MIC", "setting": "S. aureus ATCC 25923", "value": 2, "unit": "µg/mL"}, {"measurement": "MIC", "setting": "[2]", "value": 4, "unit": "µg/mL"}, {"measurement": "MBC", "setting": "E. faecium ATCC; read-out: MBC", "value": 128, "unit": "µg/mL"}, {"measurement": "MIC", "setting": "E. faecium ATCC; read-out: MIC", "value": 2, "unit": "µg/mL"}, {"measurement": "MBC", "setting": "MRSA NRS123 (USA400); read-out: MBC", "value": "> 128", "unit": "µg/mL"}, {"measurement": "MIC", "setting": "MRSA NRS123 (USA400); read-out: MIC", "value": 2, "unit": "µg/mL"}, {"measurement": "MBC", "setting": "MRSA NRS385 (USA500); read-out: MBC", "value": "> 128", "unit": "µg/mL"}, {"measurement": "MIC", "setting": "MRSA NRS385 (USA500); read-out: MIC", "value": 2, "unit": "µg/mL"}, {"measurement": "MIC", "setting": "[3]", "value": "not active"}, {"measurement": "MIC", "setting": "[3]; ATCC19606, read-out: MIC", "value": 128, "unit": "µg/mL"}, {"measurement": "MIC", "setting": "Escherichia coli BW25113", "value": "> 128", "unit": "µg/mL"}, {"measurement": "MIC", "setting": "[4]", "value": "not active"}, {"measurement": "MIC", "setting": "[4]; BAA1706, read-out: MIC", "value": "> 128", "unit": "µg/mL"}, {"measurement": "MIC", "setting": "[5]", "value": "not active"}, {"measurement": "MIC", "setting": "[5]; ATCC15442, read-out: MIC", "value": "> 128", "unit": "µg/mL"}, {"measurement": "MIC", "setting": "[6]", "value": 2, "unit": "µg/mL"}, {"measurement": "reduction in MRSA USA300 (time-kill)", "setting": "MRSA USA300; 3×MIC, after a 24-hour incubation period", "value": 2.42, "unit": "log10"}, {"measurement": "in vitro effect against MRSA USA300", "setting": "MRSA USA300; time-kill analysis and MBC", "value": "bacteriostatic"}, {"measurement": "concentration up to which non-toxic", "setting": "[7]", "value": "up to 128 μg/mL"}, {"measurement": "concentration up to which non-toxic", "setting": "[8]; J774 cells, 24 hours, tested 2 to 256 μg/mL", "value": "up to 128 μg/mL"}, {"measurement": "non-toxic concentration, fold higher than the MIC of F6 against MRSA", "setting": "[8]; mouse and human, 24 h", "value": 63, "unit": "fold"}, {"measurement": "increase in MIC after the tenth passage", "setting": "MRSA USA400 (NRS123); MRSA USA400", "value": "one-fold increase"}, {"measurement": "increase in MIC by the 14th passage from the original MIC", "setting": "MRSA USA400 (NRS123); MRSA USA400", "value": "no additional increase in MIC"}, {"measurement": "change in MIC over nine passages", "setting": "MRSA USA400 (NRS123); MRSA USA400, passages 1-9", "value": "remained unchanged"}]}]}
